# Laboratory results published in publication PMC5650337, “A peptidomimetic with a chiral switch is an inhibitor of epidermal growth factor receptor heterodimerization” (Oncotarget, 2017).
# Where two headings read alike, the source gives them in different places. Where a SMILES comes first, the peptide text is derived from it.
# Tests used:
# SKBR-3 cells [1] = system: SKBR-3 cells; set-up: method as in PMID 21887403, PMID 20919746, PMID 25346057, PMID 24222531, PMID 19703026; conditions: Table 2, compounds marked * reported earlier; read-out: Antiproliferative activity (IC50 µM) SKBR-3 cells; cited from earlier work
# [2] = biological target: T1, HER2:HER3 dimerization in transfected U2OS cells (Homo sapiens, UniProt P04626); experiment: Enzyme fragment complementation (PathHunter) assay; assay type: cell-based; conditions: for Inhibition of HER2:HER3 dimerization (PathHunter): in the presence of 0.3 µM NRG1
# T1 construct: host or cells: U2OS
# Procedure: A Pathhunter assay kit was obtained from DiscoverX, and enzyme fragment complementation assay was carried out. U2OS cells transfected with HER3:HER2 were used for the assay. After cells were attached to the wells, they were incubated with compound 18 and controls at different concentration in the presence of neuregulin-1 (NRG-1) at 0.3 µM concentration. After 24 h of incubation, reagents were added, and luminescence was measured and compared with a control without any compound. A plot of luminescence versus concentration was obtained to measure the dimerization of HER3:HER2 and its inhibition by compound 18.
# BT-474 cells = conditions: read-out: IC50 BT-474 (+); HER2-overexpressing breast cancer cells, 72 h
# Procedure: (§1) Cellular assays were performed using BT-474, SKBR-3, Calu-3, MCF-7, and MCF-10A cells (ATCC). Antiproliferative activity was measured by CellTiter-Glo®, [49] a luminescence-based cell viability assay. In a 96-well plate, 1 × 10^4 cells/well were seeded and incubated overnight at 37°C and 5% CO2. Stock solutions of peptidomimetics were prepared by dissolving 1.5 mg/mL of compounds in DMSO. Stock solution of the compounds were diluted using the serum-free medium to prepare solutions of different concentrations of compounds. Compounds in the medium were added to the wells in triplicate and incubated for 72 h. As controls, cells treated with 1% sodium dodecyl sulfate and 1% dimethyl sulfoxide were used. At the end of the experiment, CellTiter-Glo® reagent was added, and luminescence was measured by a plate reader. A dose response curve was generated using luminescence vs concentration of compounds and IC50 values were obtained using Prism® (GraphPad Software, La Jolla, CA). Experiments were repeated at least three times to obtain standard deviation values.
# SKBR-3 cells [3] = system: SKBR-3 cells
# Procedure: as §1
# SKOV-3 cells = conditions: read-out: IC50 SKOV-3(+); HER2-overexpressing ovarian cancer cells, 72 h
# Procedure: as §1
# Calu-3 cells = conditions: read-out: IC50 Calu-3 (+); HER2-overexpressing lung cancer cells, 72 h
# Procedure: as §1
# MCF-7 cells = experiment: Antiproliferative activity (CellTiter-Glo); assay type: cell-based; conditions: breast cancer cells that do not overexpress HER2, 72 h
# From the text: Erlotinib was from Sigma (Sigma-Aldrich Chemie GmbH).
# [4] = biological target: T2, HER2 ECD (domains I to IV) (Homo sapiens, UniProt P04626); experiment: Surface plasmon resonance analysis; assay type: binding; conditions: protein immobilized on CM5 chip, substance as analyte
# T2 construct: Extracellular domains of proteins HER2, EGFR, HER3, and HER4 purchased from Leinco Technologies; purchased Leinco Technologies (St. Louis, MO)
# Procedure: Surface plasmon resonance analysis was performed using GE X100. Extracellular domains of proteins HER2, EGFR, HER3, and HER4 purchased from Leinco Technologies (St. Louis, MO). […] Compound 18 and controls were used as analytes. Compound 18 at different concentrations (0 to 200 µM) was passed through an SPR chip, and binding kinetics were analyzed for each of the EGFR bindings. A blank subtracted sensorgram for compound 18 was represented.
# BT-474 breast tumors = experiment: Xenograft model of breast cancer; assay type: in vivo, athymic nude mice; conditions: BT-474 xenograft
# Procedure: All animals were handled according to the approved protocol from IACUC at the University of Louisiana at Monroe. Athymic nude mice (Foxn1nu/Foxn1+, female, 4–5 weeks) were purchased from Harlan Laboratories (Indianapolis, IN) and maintained in the ULM School of Pharmacy vivarium. After acclimatization of animals to the local environment, estrogen (17β-estradiol) pellets (0.72 mg, 90-day release) were implanted subcutaneously in the mice, under anesthesia. Tumors were induced in mice as described previously. Orthotopic injection of about three-million BT-474 cells suspended in the serum-free RPMI-1640 medium was done at the second left mammary fat pad. Mice were observed every day for tumor formation, and the tumor diameter was measured with calipers, and the tumor volume was calculated. When a tumor diameter of 3 mm was achieved, mice were randomly assigned to four groups of six. These groups contain negative control (vehicle control), positive control (lapatinib), and two treatment groups (compound 9 and 18). The mice were treated for 19 days. Compound 18 was administered near the base of the tumor at a dose of 4 mg/kg twice a week. Control groups received intratumor saline injections twice a week, and lapatinib was administered at 10 mg/kg once a week by intraperitoneal injection. The marker to end the experiments was based on tumor doubling time rather than tumor volume. Since tumor doubling time was 4 times in 19 days, experiments were stopped on the 19th day. Tumor-bearing mice were sacrificed, and three tumors per group were harvested and maintained at –80°C and the remaining three tumors were fixed in paraffin blocks. Microsections (5 µm) of paraffin fixed tumors were stained with hemotoxylin and eosin (H&E) and observed for necrosis by a pathologist. All data are presented as the mean ± SE. Statistical differences were evaluated by Mann-Whitney U test as well as one-way ANOVA analysis of data from different groups, and the criterion for statistical significance was p < 0.05.
# [5] = biological target: T3, HER2:HER3 heterodimerization in tumor sections (Homo sapiens, UniProt P04626); experiment: PLA on xenograft tumor sections; assay type: in vivo, athymic nude mice
# T3 construct: from tissue; host or cells: BT-474 xenograft tumours grown in athymic nude mice
# Procedure: Western blot and PLA assay were carried out on tumor sections as described before. Immunoblot analysis was performed to evaluate the levels of total HER2 and phosphorylated HER2. Tumor sections were deparaffinized using xylene and rehydrated with decreasing concentrations of ethanol. Antigen retrieval on the microsections of the breast tumors was done in a steaming sodium citrate buffer (10 mM, 0.05% Tween-20, pH 6.0) for 5 min. The tumor sections were then used to analyze inhibition of HER2:HER3 dimerization using PLA.
# SKBR-3 cells [6] = experiment: cells; conditions: Homo sapiens, SK-BR-3, 72 h, read-out: IC50 SKBR-3(+)
# Procedure: as §1
# [7] = read-out: Antiproliferative activity (IC50 µM) SKBR-3 cells, Table 2, compound 18 and diastereoisomers
compound,measurement,setting,value
Ac-f(Anapa)r-NH2 [compound 21],IC50,SKBR-3 cells [1],0.373 ± 0.15 µM
same,Inhibition of HER2:HER3 dimerization (PathHunter),[2],shown to inhibit HER2:HER3 dimerization
"H2N-K(3-amino-biphenyl propionic acid)F-OH [CP, reference compound]",IC50,BT-474 cells,> 100000 nM
same,IC50,"SKBR-3 cells [3]; read-out: IC50 SKBR-3(+), HER2-overexpressing breast cancer cells, 72 h",> 100 µM
same,IC50,SKOV-3 cells,> 100000 nM
same,IC50,Calu-3 cells,> 100000 nM
same,IC50,MCF-7 cells,> 100000 nM
same,Inhibition of HER2:HER3 dimerization (PathHunter),[2],did not inhibit HER2:HER3 dimerization
same,SPR binding to HER2 ECD,[4],no SPR response was observed
"Cyclo(1,10)GPR- (Anapa)FDEFWR [compound 20]",IC50,SKBR-3 cells [1],> 100 µM
"N=C(N)NCCC[C@@H]1NC(=O)[C@H]2CCCN2C(=O)[C@@H]2CCCN2C(=O)[C@H](CCCNC(=N)N)NC(=O)C[C@H](c2cccc3ccccc23)NC(=O)[C@H](Cc2ccccc2)NC(=O)[C@H](CC(=O)O)NC(=O)[C@H](CC(=O)O)NC(=O)[C@H](Cc2ccccc2)NC(=O)C[C@@H](c2cccc3ccccc23)NC1=O [compound 18-1, Cyclo(1,10)P^1p^2R^3(S-Anapa)^4F^5D^6D^7F^8(R-Anapa)^9R^10] (HELM PEPTIDE1{P.[dP].R.[O=C(C[C@H](N[*:1])c1cccc2ccccc12)[*:2]].F.D.D.F.[O=C(C[C@@H](N[*:1])c1cccc2ccccc12)[*:2]].R}$PEPTIDE1,PEPTIDE1,1:R1-10:R2$$$V2.0)",IC50,SKBR-3 cells [3]; [7],> 50 µM
NH2-Arg-Anapa-Phe-OH [compound 5],IC50,SKBR-3 cells [1],0.396 ± 0.022 µM
"N=C(N)NCCC[C@@H]1NC(=O)[C@H]2CCCN2C(=O)[C@@H]2CCCN2C(=O)[C@H](CCCNC(=N)N)NC(=O)C[C@@H](c2cccc3ccccc23)NC(=O)[C@H](Cc2ccccc2)NC(=O)[C@H](CC(=O)O)NC(=O)[C@H](CC(=O)O)NC(=O)[C@H](Cc2ccccc2)NC(=O)C[C@@H](c2cccc3ccccc23)NC1=O [compound 18-3, Cyclo(1,10)P^1p^2R^3(S-Anapa)^4F^5D^6D^7F^8(S-Anapa)^9R^10] (HELM PEPTIDE1{P.[dP].R.[O=C(C[C@H](N[*:1])c1cccc2ccccc12)[*:2]].F.D.D.F.[O=C(C[C@H](N[*:1])c1cccc2ccccc12)[*:2]].R}$PEPTIDE1,PEPTIDE1,1:R1-10:R2$$$V2.0)",IC50,SKBR-3 cells [3]; [7],41.1 ± 3.2 µM
NH2-Arg-Anapa-Phe-Asp-OH [compound 9],IC50,SKBR-3 cells [1],0.445 ± 0.032 µM
same,Difference in delay of tumor growth between compound 18 and compound 9,BT-474 breast tumors; 4 mg/kg twice a week,not statistically significant
neuregulin-1 [reference compound],Induction of HER2:HER3 dimerization (PathHunter),[2]; agonist dose-response,concentration dependence of induction of dimerization
"N=C(N)NCCC[C@@H]1NC(=O)[C@@H]2CCCN2C(=O)[C@H]2CCCN2C(=O)[C@H](CCCNC(=N)N)NC(=O)C[C@@H](c2cccc3ccccc23)NC(=O)[C@H](Cc2ccccc2)NC(=O)[C@H](CC(=O)O)NC(=O)[C@H](CC(=O)O)NC(=O)[C@H](Cc2ccccc2)NC(=O)C[C@@H](c2cccc3ccccc23)NC1=O [compound 18-4, Cyclo(1,10)p^1P^2R^3(S-Anapa)^4F^5D^6D^7F^8(S-Anapa)^9R^10] (HELM PEPTIDE1{[dP].P.R.[O=C(C[C@H](N[*:1])c1cccc2ccccc12)[*:2]].F.D.D.F.[O=C(C[C@H](N[*:1])c1cccc2ccccc12)[*:2]].R}$PEPTIDE1,PEPTIDE1,1:R1-10:R2$$$V2.0)",IC50,SKBR-3 cells [3]; [7],0.456 ± 0.13 µM
"CS(=O)(=O)CCNCc1ccc(-c2ccc3ncnc(Nc4ccc(OCc5cccc(F)c5)c(Cl)c4)c3c2)o1 [Lapatinib, reference compound]",Tumor growth versus vehicle,"BT-474 breast tumors; 19 days, 18 and 9 4 mg/kg twice a week intratumor, lapatinib 10 mg/kg once a week i.p.",significant delay in tumor growth
same,HER2:HER3 heterodimerization in tumor sections (PLA),[5],red fluorescence due to dimerization of HER2:HER3
same,IC50,SKBR-3 cells [6],13 ± 3 nM
"N=C(N)NCCC[C@@H]1NC(=O)[C@H]2CCCN2C(=O)[C@@H]2CCCN2C(=O)[C@H](CCCNC(=N)N)NC(=O)C[C@@H](c2cccc3ccccc23)NC(=O)[C@H](Cc2ccccc2)NC(=O)[C@H](CC(=O)O)NC(=O)[C@H](CC(=O)O)NC(=O)[C@H](Cc2ccccc2)NC(=O)C[C@H](c2cccc3ccccc23)NC1=O [compound 18-2, Cyclo(1,10)P^1p^2R^3(R-Anapa)^4F^5D^6D^7F^8(S-Anapa)^9R^10] (HELM PEPTIDE1{P.[dP].R.[O=C(C[C@@H](N[*:1])c1cccc2ccccc12)[*:2]].F.D.D.F.[O=C(C[C@H](N[*:1])c1cccc2ccccc12)[*:2]].R}$PEPTIDE1,PEPTIDE1,1:R1-10:R2$$$V2.0)",IC50,SKBR-3 cells [3]; [7],0.743 ± 0.35 µM
"N=C(N)NCCC[C@@H]1NC(=O)[C@@H]2CCCN2C(=O)[C@H]2CCCN2C(=O)[C@H](CCCNC(=N)N)NC(=O)C[C@H](c2cccc3ccccc23)NC(=O)[C@H](Cc2ccccc2)NC(=O)[C@H](CC(=O)O)NC(=O)[C@H](CC(=O)O)NC(=O)[C@H](Cc2ccccc2)NC(=O)C[C@H](c2cccc3ccccc23)NC1=O [compound 18-5, Cyclo(1,10)p^1P^2R^3(R-Anapa)^4F^5D^6D^7F^8(R-Anapa)^9R^10] (HELM PEPTIDE1{[dP].P.R.[O=C(C[C@@H](N[*:1])c1cccc2ccccc12)[*:2]].F.D.D.F.[O=C(C[C@@H](N[*:1])c1cccc2ccccc12)[*:2]].R}$PEPTIDE1,PEPTIDE1,1:R1-10:R2$$$V2.0)",IC50,SKBR-3 cells [3]; [7],12.8 ± 1.9 µM
